By IC50 is commonly meant the concentration that gives 50% inhibition. A low value points to greater potency in that assay. The term Kd denotes the constant that tells how readily two partners part at equilibrium.

From patent publication US10934274B2, “Quinoline derivatives as TAM RTK inhibitors” (Qurient Co., Ltd., priority 2015, dated 2021) come the findings set out here.

In experiment [1] the test system is Axl phosphorylation in transiently transfected HEK293T cells. The experiment can be described thus: Cellular Axl phosphorylation assay. The settings on record: Homo sapiens, HEK-293T; HEK293T cells transfected with Axl, 1 hour compound treatment, Phospho-Axl vs Total-Axl. Format: cell-based. An excerpt: Cell AXL Inhibition Assay Principle
The assay is based on the measurement of the relative amounts of Total-Axl and Phosphorylated-Axl in whole cell lysates of transiently transfected HEK293T cells. This assay is based on application of the Mesoscale western blot and subsequent electro-chemiluminescence detection. Overexpression of Axl-RTK (Receptor tyrosine kinase) by transfection leads to an increase in Axl-trans-autophosphorylation events. Upon compound treatment, the correlation of the measured values of Phosphorylated-Axl and Total Axl indicate the potential of the tested compound to inhibit Axl-phosphorylation at the given compound concentration.
Cell AXL Inhibition Assay Protocol
HEK293T cells (2.5×10^4/well) were plated in a 96 well plate and cells were transfected with pcDNA_DEST_40 Axl or pcDNA_DEST_40 by Superfact reagent (Qiagen. Co. Ltd.). After overnight, the transfection reagent of each well was removed from cells and replaced by fresh prewarmed medium. On the following day, cells were treated with the respective test compound which was diluted by the same method, as in the Axl binding assay using DMSO, for 1 hour
After incubation with the test compounds, cells in the well of the plate were lysed using Tris lysis buffer. The lysate was transferred to two plates (total-Axl and phosphor-Axl) Mesoscale high bind plates and incubated for two hours at room temperature. Afterwards the lysates were removed from the plates and the plates were blocked using Blocking buffer. Subsequently Total-Axl antibody (H-124, Santa Cruz) was transferred to one Mesoscale high bind plate, and Phospho-Axl antibody (AF2228, R&D) to the other plate. After 1 h incubation, Sulpho-Tag antibody (goat anti-rabbit, Mesoscale) was added and again incubated for 1 hour. For the measurement, 2×MSD read buffer was added to each well and the plates were analyzed with a Mesoscale Sector Imager 2400. IC50 (half the maximal inhibitory concentration) was determined relative to between the vehicle (DMSO) control group and minimum control group as transfection of the control vector (pcDNA_DEST_40).
The results after this assay are shown in table 3 for selected compounds.

The next experiment deals with T1, TYRO3 (Homo sapiens, UniProt Q06418).
T1 construct: purchased Life Technologies
T1 sequence (Q06418 41-890): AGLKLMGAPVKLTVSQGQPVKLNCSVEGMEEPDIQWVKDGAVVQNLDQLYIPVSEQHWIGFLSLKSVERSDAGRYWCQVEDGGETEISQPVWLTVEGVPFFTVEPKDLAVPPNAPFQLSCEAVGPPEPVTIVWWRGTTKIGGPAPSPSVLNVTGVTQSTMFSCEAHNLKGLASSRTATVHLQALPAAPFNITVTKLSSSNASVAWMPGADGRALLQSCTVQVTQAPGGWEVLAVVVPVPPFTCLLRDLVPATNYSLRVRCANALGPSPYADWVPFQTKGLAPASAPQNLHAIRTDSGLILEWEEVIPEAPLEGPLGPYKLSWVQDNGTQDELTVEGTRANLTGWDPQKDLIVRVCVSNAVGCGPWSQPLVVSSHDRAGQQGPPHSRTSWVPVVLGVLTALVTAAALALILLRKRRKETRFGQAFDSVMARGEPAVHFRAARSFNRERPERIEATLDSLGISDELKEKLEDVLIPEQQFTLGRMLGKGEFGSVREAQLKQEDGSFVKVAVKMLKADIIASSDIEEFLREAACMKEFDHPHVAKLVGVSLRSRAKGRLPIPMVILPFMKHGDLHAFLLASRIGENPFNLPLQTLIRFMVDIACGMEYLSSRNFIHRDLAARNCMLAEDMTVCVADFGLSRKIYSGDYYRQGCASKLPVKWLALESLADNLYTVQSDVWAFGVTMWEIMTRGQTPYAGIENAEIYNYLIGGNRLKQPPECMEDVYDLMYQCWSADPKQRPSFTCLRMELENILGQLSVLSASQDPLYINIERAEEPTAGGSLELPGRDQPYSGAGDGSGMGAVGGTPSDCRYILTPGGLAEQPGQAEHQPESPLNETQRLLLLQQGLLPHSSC
The experiment can be described thus: LanthaScreen Eu kinase binding assay, TYRO3. The settings on record: Tracer 236. On the technique in general: In TR-FRET formats the signal depends on donor and acceptor labels being close together.

For the next experiment, the target named is T2, Met (Homo sapiens, UniProt P08581).
T2 construct: purchased Life Technologies
T2 sequence (P08581 25-1390): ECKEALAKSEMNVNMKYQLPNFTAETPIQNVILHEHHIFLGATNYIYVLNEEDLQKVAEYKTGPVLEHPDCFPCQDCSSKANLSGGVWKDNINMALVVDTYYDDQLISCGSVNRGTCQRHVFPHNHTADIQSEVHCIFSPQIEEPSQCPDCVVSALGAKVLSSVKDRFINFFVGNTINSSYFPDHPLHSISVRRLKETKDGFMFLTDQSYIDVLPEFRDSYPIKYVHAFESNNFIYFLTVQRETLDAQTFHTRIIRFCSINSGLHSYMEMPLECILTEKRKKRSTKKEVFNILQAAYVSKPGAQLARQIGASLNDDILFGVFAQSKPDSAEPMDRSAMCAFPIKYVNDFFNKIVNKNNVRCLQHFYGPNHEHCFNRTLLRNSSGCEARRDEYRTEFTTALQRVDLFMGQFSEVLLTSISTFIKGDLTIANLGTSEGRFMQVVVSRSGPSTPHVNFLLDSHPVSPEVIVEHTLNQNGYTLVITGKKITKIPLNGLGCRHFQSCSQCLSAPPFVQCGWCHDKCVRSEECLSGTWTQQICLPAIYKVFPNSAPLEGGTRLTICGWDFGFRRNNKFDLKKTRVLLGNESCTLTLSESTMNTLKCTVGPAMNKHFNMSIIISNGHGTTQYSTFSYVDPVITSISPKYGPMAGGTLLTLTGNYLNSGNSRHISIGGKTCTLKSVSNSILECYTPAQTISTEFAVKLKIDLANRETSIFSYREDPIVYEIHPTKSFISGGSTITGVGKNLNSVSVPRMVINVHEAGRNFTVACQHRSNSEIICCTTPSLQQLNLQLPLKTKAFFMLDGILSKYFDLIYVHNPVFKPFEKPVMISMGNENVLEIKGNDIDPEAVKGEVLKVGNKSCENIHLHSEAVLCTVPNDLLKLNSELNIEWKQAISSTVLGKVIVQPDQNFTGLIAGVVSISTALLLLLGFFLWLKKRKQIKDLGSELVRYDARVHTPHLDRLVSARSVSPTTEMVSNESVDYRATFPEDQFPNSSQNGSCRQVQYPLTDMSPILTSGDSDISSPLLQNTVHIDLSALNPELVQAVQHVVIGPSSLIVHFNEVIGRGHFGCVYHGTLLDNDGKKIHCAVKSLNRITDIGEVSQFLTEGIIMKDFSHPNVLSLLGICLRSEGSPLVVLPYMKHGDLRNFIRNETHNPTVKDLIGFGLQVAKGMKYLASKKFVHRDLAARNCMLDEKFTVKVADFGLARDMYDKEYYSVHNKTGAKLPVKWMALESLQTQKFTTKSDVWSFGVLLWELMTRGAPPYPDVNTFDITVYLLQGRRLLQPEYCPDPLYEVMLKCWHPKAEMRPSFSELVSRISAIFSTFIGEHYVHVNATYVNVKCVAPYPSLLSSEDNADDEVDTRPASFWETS
The experiment can be described thus: LanthaScreen Eu kinase binding assay, Met. The settings on record: Tracer 236, read-out: cMet kinase binding activity (Kd).

Where only a bound is given, the exact number is not on record here.

In turn, `CCOc1cn(-c2cncn2C)nc1C(=O)Nc1ccc(Oc2ccnc3cc(OC)c(OC)cc23)cn1` [Compound 11] came in with a concentration for half-maximal inhibition (IC50) in experiment [1] of less than 100 nM. The Kd at TYRO3 and on Met was 100 to 1000 nM throughout.

In turn, `CCOc1cn(-c2nccnc2Cl)nc1C(=O)Nc1ccc(Oc2ccnc3cc(OC)c(OC)cc23)cc1F` [Compound 190] gave an IC50 in experiment [1] of less than 100 nM. Also, the Kd at TYRO3 and on Met was less than 100 nM in each case.

The molecule `CCOc1cn(-c2c(C)ccnc2C)nc1C(=O)Nc1ccc(Oc2ccnc3cc(OC)c(OC)cc23)c(F)c1` [Compound 188] came in with an IC50 in experiment [1] of less than 100 nM. Moreover, the Kd at TYRO3 and on Met was less than 100 nM each time.

On to `CCOc1cn(-c2cscn2)nc1C(=O)Nc1ccc(Oc2ccnc3cc(OC)c(OC)cc23)cn1` [Compound 13], for which, in experiment [1], the IC50 is less than 100 nM. Besides, the Kd at TYRO3 and at Met was less than 100 nM in each case.

In experiment [1], `CCOc1cn(-c2ccc(Cl)c(C(=O)N(C)C)c2)nc1C(=O)Nc1ccc(Oc2ccnc3cc(OC)c(OC)cc23)cn1` [Compound 129] displayed an IC50 of less than 100 nM. For the same molecule, the figures for the Kd at TYRO3 and at Met were not below 1000 nM and less than 100 nM, respectively.

Turning to `CCOc1cn(-c2ncn(C)n2)nc1C(=O)Nc1ccc(Oc2ccnc3cc(OC)c(OC)cc23)cn1` [Compound 165], the IC50 in experiment [1] is less than 100 nM. Also, the Kd on TYRO3 was 100 to 1000 nM; at Met it was less than 100 nM.

Molecule `CCOc1cn(-c2ccc(Cl)c(CN(C)C)c2)nc1C(=O)Nc1ccc(Oc2ccnc3cc(OC)c(OC)cc23)cn1` [Compound 126] came in with an IC50 in experiment [1] of less than 100 nM. The results for the Kd on TYRO3 and at Met were not below 1000 nM and less than 100 nM, respectively.

With `CCOc1cn(-c2cncs2)nc1C(=O)Nc1ccc(Oc2ccnc3cc(OC)c(OC)cc23)cn1` [Compound 14], in experiment [1], the IC50 was less than 100 nM. Further, the Kd on TYRO3 and on Met was less than 100 nM throughout.

With `CCOc1cn(-c2cnccc2Cl)nc1C(=O)Nc1ccc(Oc2ccnc3cc(OC)c(OC)cc23)cc1F` [Compound 194], in experiment [1], the IC50 is less than 100 nM. In addition, the dissociation constant (Kd) at TYRO3 and at Met was less than 100 nM throughout.

In the case of `COc1cc2nccc(Oc3ccc(NC(=O)c4nn(-c5ccc(OC(F)(F)F)cc5Cl)cc4OCC(F)(F)F)nc3)c2cc1OC` [Compound 186], the IC50 in experiment [1] is less than 100 nM. Moreover, the dissociation constant Kd on TYRO3 and on Met was 100 to 1000 nM each time.

As for `CCOc1cn(-c2ccc(Cl)cc2Cl)nc1C(=O)Nc1ccc(Oc2ccnc3cc(OC)c(OC)cc23)cn1` [Compound 108], the IC50 in experiment [1] is less than 100 nM. Further, the Kd on TYRO3 is less than 100 nM; on Met it was not below 1000 nM.

Take `CCOc1cn(-c2ccc(F)cc2C)nc1C(=O)Nc1ccc(Oc2ccnc3cc(OC)c(OC)cc23)nn1` [Compound 97]: the IC50 in experiment [1] was less than 100 nM. Besides, the Kd at TYRO3 and on Met was not below 1000 nM in each case.

In experiment [1], `CCOc1cn(-c2ccc(OC(F)(F)F)cc2Cl)nc1C(=O)Nc1ccc(Oc2ccnc3cc(OC)c(OC)cc23)cn1` [Compound 115] returned an IC50 of less than 100 nM. For the same molecule, the Kd is not below 1000 nM on TYRO3 and less than 100 nM at Met.

Regarding `CCOc1cn(-c2ccc(Cl)cc2CC)nc1C(=O)Nc1ccc(Oc2ccnc3cc(OC)c(OC)cc23)cn1` [Compound 111], in experiment [1], the 50% inhibitory concentration (IC50) is less than 100 nM. For the same molecule, the Kd at TYRO3 and on Met was less than 100 nM in each case.

Regarding `CCOc1cn(-c2cnccc2C(F)(F)F)nc1C(=O)Nc1ccc(Oc2ccnc3cc(OC)c(OC)cc23)cn1` [Compound 170], the IC50 in experiment [1] was less than 100 nM. For the same molecule, the Kd on TYRO3 and on Met was less than 100 nM each time.

As for `CCOc1cn(-c2nc[nH]n2)nc1C(=O)Nc1ccc(Oc2ccnc3cc(OC)c(OC)cc23)cn1` [Compound 168], the concentration for half-maximal inhibition (IC50) in experiment [1] was less than 100 nM. In addition, the Kd at TYRO3 and at Met was less than 100 nM throughout.

In turn, `CCOc1cn(-c2cn[nH]c2)nc1C(=O)Nc1ccc(Oc2ccnc3cc(OC)c(OC)cc23)cn1` [Compound 8] registered an IC50 in experiment [1] of less than 100 nM. The Kd on TYRO3 is 100 to 1000 nM; on Met it was less than 100 nM.

For `CCOc1cn(-c2cnc(N)nc2)nc1C(=O)Nc1ccc(Oc2ccnc3cc(OC)c(OC)cc23)c(F)c1` [Compound 141], in experiment [1], the IC50 was less than 100 nM. The dissociation constant Kd at TYRO3 and on Met was less than 100 nM each time.

Molecule `CCOc1cn(-c2ccc(F)cc2C(F)(F)F)nc1C(=O)Nc1ccc(Oc2ccnc3cc(OC)c(OC)cc23)cn1` [Compound 104] came in with an IC50 in experiment [1] of less than 100 nM. Further, the dissociation constant (Kd) on TYRO3 and on Met was less than 100 nM throughout.

In turn, `CCOc1cn(-c2c(C)ccnc2C)nc1C(=O)Nc1ccc(Oc2ccnc3cc(OC)c(OC)cc23)cn1` [Compound 132] showed a half-maximal inhibitory concentration (IC50) in experiment [1] of less than 100 nM. Also, the Kd at TYRO3 and at Met was less than 100 nM throughout.

As for `CCOc1cnn(-c2ccc(C(F)(F)F)cc2C)c1C(=O)Nc1ccc(Oc2ccnc3cc(OC)c(OC)cc23)cn1` [Compound 102], the IC50 in experiment [1] is less than 100 nM. In addition, the values for the Kd at TYRO3 and on Met were 100 to 1000 nM and not below 1000 nM, respectively.

Consider `CCOc1cn(-c2cnccc2C(C)(O)CO)nc1C(=O)Nc1ccc(Oc2ccnc3cc(OC)c(OC)cc23)cn1` (stereo not drawn) [Compound 205], for which the IC50 in experiment [1] was less than 100 nM. The Kd at TYRO3 and at Met was less than 100 nM throughout.

For the molecule `CCOc1cn(-c2cnccc2Cl)nc1C(=O)Nc1ccc(Oc2ccnc3cc(OC)c(OC)cc23)cn1` [Compound 183], the IC50 in experiment [1] was less than 100 nM. The Kd on TYRO3 and on Met was less than 100 nM in each case.

Molecule `CCOc1cn(-c2cnccc2CO)nc1C(=O)Nc1ccc(Oc2ccnc3cc(OC)c(OC)cc23)cn1` [Compound 179] yielded an IC50 in experiment [1] of less than 100 nM. The Kd at TYRO3 and at Met was less than 100 nM each time.

Consider `CCOc1cn(-c2noc(C)n2)nc1C(=O)Nc1ccc(Oc2ccnc3cc(OC)c(OC)cc23)cn1` [Compound 161], for which the IC50 in experiment [1] was less than 100 nM. Moreover, the Kd at TYRO3 and at Met was less than 100 nM each time.

Regarding `CCOc1cn(-c2ccc(OC(F)(F)F)cc2C)nc1C(=O)Nc1ccc(Oc2ccnc3cc(OC)c(OC)cc23)cn1` [Compound 113], the IC50 in experiment [1] was less than 100 nM. Also, the equilibrium dissociation constant (Kd) on TYRO3 and on Met was 100 to 1000 nM each time.

In the case of `CCOc1cn(-c2cnccc2C(F)(F)F)nc1C(=O)Nc1ccc(Oc2ccnc3cc(OC)c(OC)cc23)c(F)c1` [Compound 198], the IC50 in experiment [1] was less than 100 nM. Besides, the Kd at TYRO3 and on Met was less than 100 nM in each case.

In experiment [1], `CCOc1cn(-c2c(C)cc(C)cc2C)nc1C(=O)Nc1ccc(Oc2ccnc3cc(OC)c(OC)cc23)cn1` [Compound 117] showed an IC50 of less than 100 nM. The Kd is 100 to 1000 nM at TYRO3 and less than 100 nM at Met.

In experiment [1], `CCOc1cn(-c2nccnc2C(F)(F)F)nc1C(=O)Nc1ccc(Oc2ccnc3cc(OC)c(OC)cc23)cn1` [Compound 162] had an IC50 of less than 100 nM. Besides, the Kd was 100 to 1000 nM at TYRO3 and less than 100 nM at Met.

On to `CCOc1cn(-c2cnccc2C(C)(C)O)nc1C(=O)Nc1ccc(Oc2ccnc3cc(OC)c(OC)cc23)cn1` [Compound 184], for which the IC50 in experiment [1] was less than 100 nM. The Kd on TYRO3 and at Met was less than 100 nM throughout.

The molecule `CCOc1cn(-c2cnccc2C(C)(C)O)nc1C(=O)Nc1ccc(Oc2ccnc3cc(OC)c(OC)cc23)c(F)c1` [Compound 195] had an IC50 in experiment [1] of less than 100 nM. Besides, the Kd on TYRO3 and on Met was less than 100 nM throughout.
